Test systems include CAKI-1 renal; COLO 205 colon; NCI-H460 lung; MDA-MB-435; OVCAR-3 ovarian; ACHN renal; SW-620 colon; 786-0 renal; SK-MEL-5 melanoma; OVCAR-5 ovarian.
Common to all, as to experiment: NCI-60 cell line screen, 48 h

SMILES strings stand for the structures.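 Following 48 hours of exposure in 96-well plates, responses at five concentrations were used to interpolate endpoints linearly. GI50 is the concentration that inhibits growth by half. TGI denotes the concentration required for complete inhibition of growth.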

`COC(=O)c1cc2c(o1)-c1nccc3c1c(nc1ccccc13)C2=O`: the GI50 is 9.48 µM in the test with CAKI-1 renal; 14.9 µM in the test on COLO 205 colon; 12.2 µM in the test on NCI-H460 lung; 0.538 µM with MDA-MB-435; 1.26 µM in the test with OVCAR-3 ovarian; 2.27 µM with ACHN renal. In addition, the GI50 with SW-620 colon was 3.78 µM; in the test on 786-0 renal it was 2.93 µM; in the test with SK-MEL-5 melanoma it was 1.2 µM; in the test on OVCAR-5 ovarian, 17.3 µM. Also, the TGI in the test with CAKI-1 renal turned out to be 32.3 µM; with COLO 205 colon, 29.3 µM; in the test on NCI-H460 lung it was 35 µM; in the test on MDA-MB-435, 1.81 µM; in the test on OVCAR-3 ovarian it was 4.37 µM; in the test with ACHN renal, 14.7 µM. Further, the TGI with SW-620 colon came to 17.5 µM; in the test on 786-0 renal, 14 µM; with SK-MEL-5 melanoma, 4.69 µM; with OVCAR-5 ovarian, 34.3 µM.

Turning to `CCCc1cc(=O)n2c(C(=O)Nc3ccc(Cl)cc3C)c(C(=O)Nc3ccc(F)cc3)sc2n1`, the GI50 with CAKI-1 renal is 7.77 µM; in the test with COLO 205 colon, 16.9 µM; in the test on NCI-H460 lung, 20.8 µM; in the test on MDA-MB-435 it was 20.9 µM; with OVCAR-3 ovarian it was 3.35 µM; in the test with ACHN renal, 3.8 µM. The GI50 was 6.45 µM in the test on SW-620 colon, 2.36 µM in the test with 786-0 renal, 27.1 µM in the test with SK-MEL-5 melanoma and 53.9 µM in the test on OVCAR-5 ovarian. Moreover, the TGI was 42.3 µM in the test with CAKI-1 renal; above 150 µM in the test on COLO 205 colon; above 150 µM with NCI-H460 lung; above 150 µM with MDA-MB-435; 8.33 µM in the test on OVCAR-3 ovarian; 13.4 µM with ACHN renal. For the same compound, the TGI in the test with SW-620 colon was 61.4 µM; in the test on 786-0 renal it was 5.96 µM; in the test with SK-MEL-5 melanoma, above 150 µM; in the test with OVCAR-5 ovarian it was above 150 µM.

As to `CCN(CC)CCCCCCNc1cccc2cc(Br)cnc12`, the GI50 in the test with CAKI-1 renal was 2.83 µM; with COLO 205 colon it was 1.87 µM; in the test with NCI-H460 lung, 4.25 µM; in the test on MDA-MB-435, 3.76 µM; in the test with OVCAR-3 ovarian, 8.63 µM; in the test with ACHN renal it was 4.98 µM. Also, the GI50 in the test with SW-620 colon is 3.41 µM; in the test with 786-0 renal it was 3.39 µM; with SK-MEL-5 melanoma, 1.83 µM; in the test on OVCAR-5 ovarian, 6.25 µM. Moreover, the TGI in the test with CAKI-1 renal was 12.4 µM; in the test on COLO 205 colon it was 3.88 µM; in the test with NCI-H460 lung it was 16.5 µM; in the test with MDA-MB-435, 12.9 µM; in the test on OVCAR-3 ovarian it was 24.8 µM; with ACHN renal, 17.1 µM. Besides, the TGI in the test with SW-620 colon is 14.7 µM; in the test with 786-0 renal, 11.1 µM; with SK-MEL-5 melanoma, 3.27 µM; in the test with OVCAR-5 ovarian it was 18.9 µM.

`C=CC(=O)N1CN(C(=O)C=C)CN(C(=O)C=C)C1`: the GI50 was 1.63 µM in the test on CAKI-1 renal; 1.7 µM in the test on COLO 205 colon; 21.7 µM in the test with NCI-H460 lung; 2.96 µM with MDA-MB-435; 2.57 µM with OVCAR-3 ovarian; 1.89 µM with ACHN renal. The GI50 in the test with SW-620 colon is 2.16 µM; with 786-0 renal, 7.15 µM; in the test on SK-MEL-5 melanoma it was 9.61 µM; in the test with OVCAR-5 ovarian, 10.6 µM. Further, the TGI in the test on CAKI-1 renal amounted to 3.7 µM; in the test with COLO 205 colon, 3.59 µM; in the test on NCI-H460 lung, 50.4 µM; with MDA-MB-435, 10.7 µM; with OVCAR-3 ovarian, 7.99 µM; in the test with ACHN renal it was 4.49 µM. The TGI in the test on SW-620 colon stood at 5.16 µM; with 786-0 renal, 24.7 µM; in the test on SK-MEL-5 melanoma, 24.7 µM; in the test with OVCAR-5 ovarian, 24.7 µM.

With `ClCCN(CCCl)c1ccc(CNc2ccccc2)cc1`, the GI50 with CAKI-1 renal was 1.39 µM; in the test on COLO 205 colon, 20.8 µM; in the test on NCI-H460 lung, 1.21 µM; in the test on MDA-MB-435 it was 12 µM; in the test with OVCAR-3 ovarian it was 15.2 µM; with ACHN renal it was 2.76 µM. In addition, the GI50 was 10.6 µM with SW-620 colon, 5.11 µM with 786-0 renal, 11.3 µM in the test on SK-MEL-5 melanoma and 25.8 µM in the test on OVCAR-5 ovarian. For the same compound, the TGI with CAKI-1 renal, in the test with COLO 205 colon, in the test with NCI-H460 lung, in the test with MDA-MB-435, with OVCAR-3 ovarian and in the test on ACHN renal was above 100 µM in each case. Besides, the TGI in the test with SW-620 colon is above 100 µM; in the test with 786-0 renal it was 36 µM; with SK-MEL-5 melanoma it was 34.4 µM; in the test on OVCAR-5 ovarian, above 100 µM.

Regarding `O=C1CCCN1c1ccccc1I(=O)=O`, the GI50 with CAKI-1 renal, with COLO 205 colon, in the test with NCI-H460 lung, with MDA-MB-435, in the test with OVCAR-3 ovarian and in the test with ACHN renal was above 100 µM each time. The GI50 in the test with SW-620 colon, in the test on 786-0 renal, in the test on SK-MEL-5 melanoma and with OVCAR-5 ovarian was above 100 µM throughout. Moreover, the TGI in the test on CAKI-1 renal, with COLO 205 colon, with NCI-H460 lung, in the test with MDA-MB-435, in the test with OVCAR-3 ovarian and with ACHN renal was above 100 µM each time. The TGI in the test with SW-620 colon, in the test on 786-0 renal, with SK-MEL-5 melanoma and with OVCAR-5 ovarian was above 100 µM throughout.

As to `Nc1cc2c(cc1Br)[nH]c(=O)c1ccccc12`, the GI50 in the test with CAKI-1 renal was 5.39 µM; in the test on COLO 205 colon, 3.34 µM; in the test with NCI-H460 lung, 3.66 µM; in the test on MDA-MB-435 it was 1.91 µM; in the test with OVCAR-3 ovarian it was 2.14 µM; with ACHN renal, 3.09 µM. Also, the GI50 was 7.73 µM with SW-620 colon, 6.16 µM in the test with 786-0 renal, 1.46 µM in the test on SK-MEL-5 melanoma and 6.91 µM with OVCAR-5 ovarian. Besides, the TGI in the test on CAKI-1 renal was found to be 53.4 µM; with NCI-H460 lung, 18.5 µM; with MDA-MB-435, 3.57 µM; in the test with OVCAR-3 ovarian, 6.45 µM; in the test on ACHN renal, 20.1 µM; in the test with SW-620 colon it was 29 µM. In addition, the results for the TGI in the test with 786-0 renal, in the test on SK-MEL-5 melanoma and in the test with OVCAR-5 ovarian were above 100 µM, 2.79 µM and 41.1 µM, respectively.
